For the assay, the target named is human PI3Kalpha p110 catalytic subunit (Rat-1 cells) (Homo sapiens (Human), UniProt P42336). Description: Cellular assay PI3Kalpha, p-Akt(S473) SureFire in Rat-1_PI3Kalpha cells. It is filed as cell-based. The settings on record: p-AKT(Ser473), 1 h treatment. The text has this: AlphaScreen (Amplified Luminescent Proximity Homogeneous Assay, ALPHA, Perkin Elmer) is a non-radioactive bead-based proximity assay technology to study biomolecular interactions in a homogenous microtiter plate format. The brand name SureFire denotes AlphaScreen assays that are adapted to quantify the phosphorylation of endogenous cellular proteins in cell lysates, by using matched antibody pairs, which consist of an anti-phospho-kinase and an anti-kinase antibody. The assay allows characterization of kinase signaling in cells as well as measurement of kinase inhibitor effects. The AlphaScreen technology provides several advantages over standard assay techniques such as ELISA, as it avoids time-consuming washing procedures and reduces plate handling. Furthermore, it is miniaturizable at least to a 384-well format and provides sensitivity down to the femtomolar range, dependent on the affinity of the antibodies included in the individual AlphaScreen SureFire assay kit. High sensitivity is reached by an intrinsic amplification mechanism, which involves production of singlet oxygen molecules. SureFire assay kits are commercially available for specific targets and include pairs of validated antibodies (PerkinElmer). […]
Chain of human PI3Kalpha p110 catalytic subunit (Rat-1 cells) (P42336 whole entry): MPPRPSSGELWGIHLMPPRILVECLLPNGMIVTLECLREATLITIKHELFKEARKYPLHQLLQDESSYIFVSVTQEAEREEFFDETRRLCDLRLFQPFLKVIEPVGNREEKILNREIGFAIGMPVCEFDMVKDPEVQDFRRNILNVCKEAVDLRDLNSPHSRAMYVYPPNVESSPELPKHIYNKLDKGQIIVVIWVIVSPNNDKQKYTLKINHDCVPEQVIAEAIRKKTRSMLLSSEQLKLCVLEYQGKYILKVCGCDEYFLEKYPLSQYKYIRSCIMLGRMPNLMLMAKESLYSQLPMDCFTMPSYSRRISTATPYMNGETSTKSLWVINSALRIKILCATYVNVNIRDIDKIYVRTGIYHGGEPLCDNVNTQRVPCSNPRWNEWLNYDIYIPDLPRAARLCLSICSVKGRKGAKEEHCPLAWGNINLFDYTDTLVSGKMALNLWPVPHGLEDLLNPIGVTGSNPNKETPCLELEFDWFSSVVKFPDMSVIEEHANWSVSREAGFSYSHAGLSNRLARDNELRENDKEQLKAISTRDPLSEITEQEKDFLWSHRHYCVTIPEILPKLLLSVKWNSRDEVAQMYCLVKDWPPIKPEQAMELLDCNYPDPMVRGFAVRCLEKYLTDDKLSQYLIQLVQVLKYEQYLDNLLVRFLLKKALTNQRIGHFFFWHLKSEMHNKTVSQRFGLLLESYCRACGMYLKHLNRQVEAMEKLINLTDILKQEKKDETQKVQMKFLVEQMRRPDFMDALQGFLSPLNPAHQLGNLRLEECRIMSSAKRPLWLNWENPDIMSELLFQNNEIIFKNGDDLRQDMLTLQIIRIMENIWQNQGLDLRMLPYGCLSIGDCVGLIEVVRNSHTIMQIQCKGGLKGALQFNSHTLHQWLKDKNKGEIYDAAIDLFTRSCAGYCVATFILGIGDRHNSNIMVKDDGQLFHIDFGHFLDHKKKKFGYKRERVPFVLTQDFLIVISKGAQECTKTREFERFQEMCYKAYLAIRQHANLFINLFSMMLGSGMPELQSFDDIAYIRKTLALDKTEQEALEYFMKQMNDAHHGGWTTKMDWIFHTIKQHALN
Chain of human PI3Kalpha p110 catalytic subunit (Rat-1 cells) (Q63787 whole entry partner): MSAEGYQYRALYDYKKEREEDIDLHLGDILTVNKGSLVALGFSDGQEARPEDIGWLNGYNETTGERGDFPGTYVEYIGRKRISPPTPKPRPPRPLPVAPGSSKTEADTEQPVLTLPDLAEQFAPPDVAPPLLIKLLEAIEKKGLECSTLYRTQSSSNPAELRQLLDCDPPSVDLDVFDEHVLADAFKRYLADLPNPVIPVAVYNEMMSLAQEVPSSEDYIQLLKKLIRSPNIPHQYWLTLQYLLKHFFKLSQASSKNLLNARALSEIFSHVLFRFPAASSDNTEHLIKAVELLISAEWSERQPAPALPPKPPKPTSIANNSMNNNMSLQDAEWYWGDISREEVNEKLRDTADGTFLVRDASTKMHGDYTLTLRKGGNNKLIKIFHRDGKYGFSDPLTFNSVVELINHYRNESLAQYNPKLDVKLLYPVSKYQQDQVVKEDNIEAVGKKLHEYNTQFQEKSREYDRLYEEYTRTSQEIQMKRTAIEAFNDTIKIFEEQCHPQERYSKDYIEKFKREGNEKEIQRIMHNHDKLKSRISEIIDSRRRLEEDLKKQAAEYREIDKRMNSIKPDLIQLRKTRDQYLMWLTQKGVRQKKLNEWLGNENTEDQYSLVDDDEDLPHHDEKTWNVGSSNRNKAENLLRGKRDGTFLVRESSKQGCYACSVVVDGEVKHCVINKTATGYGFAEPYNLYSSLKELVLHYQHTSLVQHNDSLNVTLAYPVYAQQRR

The structures appear in SMILES notation.

Regarding `Nc1ncc(-c2cc(N3C(=O)O[C@@H](c4ccccc4)[C@@H]3CO)nc(N3CCOCC3)n2)c(C(F)(F)F)n1` [Example 10], the Rat1-PI3Ka/IC50 is 0.085 umol I-1.

The values are drawn from patent US10202371B2, “Oxazolidin-2-one-pyrimidine derivatives and the use thereof as phosphatidylinositol-3-kinase inhibitors” (Novartis AG, priority 2012, dated 2019).
